Laboratory results taken from PubChem BioAssay AID248 (DTP/NCI, 2004).
Where “and” joins values, the source holds several entries; their conditions need not be identical. Equal values may be shown once. Toxic doses and inconclusive results are not listed. No stated cut-off is given here; in the data, active means T/C of 150% or more; inactive means T/C below 125%.

Test system: L1210 leukemia ip in BDF1 mice, survival T/C
Experiment: NCI In Vivo Anticancer Drug Screen. Data for tumor model L1210 Leukemia (intraperitoneal) in B6D2F1 (BDF1) mice
Settings: endpoint: mean survival time, higher = longer survival
How it was run: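 In this screen, tumor-bearing mice given compound are compared to those given vehicle, and their survival values are reported as a treated-to-control quotient.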

[1] = dose: 75.0 mg/kg/injection, schedule: Q01DX001 (ip), vehicle: other
[2] = dose: 150.0 mg/kg/injection, schedule: Q01DX001 (ip), vehicle: other
[3] = dose: 100.0 mg/kg/injection, schedule: Q01DX001 (ip), vehicle: saline
[4] = dose: 200.0 mg/kg/injection, schedule: Q01DX001 (ip), vehicle: saline
[5] = dose: 400.0 mg/kg/injection, schedule: Q01DX001 (ip), vehicle: saline
[6] = dose: 100.0 mg/kg/injection, schedule: Q04DX003 (ip), vehicle: Klucel (hydroxypropylcellulose) (HPC)
[7] = dose: 200.0 mg/kg/injection, schedule: Q04DX003 (ip), vehicle: Klucel (hydroxypropylcellulose) (HPC)
[8] = dose: 100.0 mg/kg/injection, schedule: Q01DX001 (ip), vehicle: carboxymethylcellulose (CMC)
[9] = dose: 200.0 mg/kg/injection, schedule: Q01DX001 (ip), vehicle: carboxymethylcellulose (CMC)
[10] = dose: 400.0 mg/kg/injection, schedule: Q01DX001 (ip), vehicle: carboxymethylcellulose (CMC)
[11] = dose: 100.0 mg/kg/injection, schedule: Q01DX009 (ip), vehicle: Klucel (hydroxypropylcellulose) (HPC)
[12] = dose: 200.0 mg/kg/injection, schedule: Q01DX009 (ip), vehicle: Klucel (hydroxypropylcellulose) (HPC)
[13] = dose: 400.0 mg/kg/injection, schedule: Q04DX003 (ip), vehicle: Klucel (hydroxypropylcellulose) (HPC)

Measured: T/C

CC(C)(C)c1nc2ccc([N+](=O)[O-])cc2[nH]1
inactive: dose: 38.0 mg/kg/injection, schedule: Q01DX009 (ip), vehicle: other 104 % of control | [1] 92 % of control | dose: 75.0 mg/kg/injection, schedule: Q04DX003 (ip), vehicle: other 92 % of control | [2] 91 % of control | dose: 150.0 mg/kg/injection, schedule: Q04DX003 (ip), vehicle: other 92 % of control | dose: 300.0 mg/kg/injection, schedule: Q01DX001 (ip), vehicle: other 97 % of control

CC(=O)OC1CCC2(C)C(C1)CC(OC(C)=O)C1C2CCC2(C)C(C(C)CCC(=O)O)CCC12 (stereo not given)
inactive: dose: 100.0 mg/kg/injection, schedule: Q01DX001 (ip), vehicle: saline with Tween-80 92 % of control | dose: 200.0 mg/kg/injection, schedule: Q01DX001 (ip), vehicle: saline with Tween-80 97 % of control | dose: 400.0 mg/kg/injection, schedule: Q01DX001 (ip), vehicle: saline with Tween-80 92 % of control

O=C(CBr)c1cc(-c2ccc(Cl)c(Cl)c2)nc2c(Cl)cc(Cl)cc12
inactive: [3] 94 % of control | [4] 95 % of control | [5] 94 % of control

CC(C)C(CNC1=NCCN1)c1cccc2ccccc12 (stereo not given)
inactive: dose: 12.5 mg/kg/injection, schedule: Q04DX003 (ip), vehicle: saline with Tween-80 93 % of control | dose: 25.0 mg/kg/injection, schedule: Q04DX003 (ip), vehicle: saline with Tween-80 93 % of control | dose: 50.0 mg/kg/injection, schedule: Q04DX003 (ip), vehicle: saline with Tween-80 119 % of control

OCC(O)C1OC(Oc2ccccc2)C(O)C(O)C1O (stereo not given)
inactive: dose: 100.0 mg/kg/injection, schedule: Q04DX003 (ip), vehicle: saline 100 % of control | dose: 200.0 mg/kg/injection, schedule: Q04DX003 (ip), vehicle: saline 98 % of control | dose: 400.0 mg/kg/injection, schedule: Q04DX003 (ip), vehicle: saline 100 % of control

COc1ccccc1N=Nc1ccc(O)c(C(=O)O)c1
inactive: [6] 102 % of control | [7] 103 % of control

O=C(CCCCl)Oc1ccccc1
inactive: dose: 100.0 mg/kg/injection, schedule: Q01DX009 (ip), vehicle: saline with Tween-80 103 % of control | dose: 200.0 mg/kg/injection, schedule: Q01DX009 (ip), vehicle: saline with Tween-80 98 % of control

O=c1[nH]c2ccccc2c2ccc(Br)cc12
inactive: [8] 104 % of control | [9] 97 % of control | [10] 90 % of control

c1ccc(-c2nn(-c3ccccc3)[n+](-c3cccc4ccccc34)n2)cc1
inactive: dose: 1.0 mg/kg/injection, schedule: Q01DX015 (ip), vehicle: carboxymethylcellulose (CMC) 100 % of control | dose: 2.0 mg/kg/injection, schedule: Q01DX015 (ip), vehicle: carboxymethylcellulose (CMC) 102 % of control | dose: 4.0 mg/kg/injection, schedule: Q01DX015 (ip), vehicle: carboxymethylcellulose (CMC) 102 % of control | dose: 8.0 mg/kg/injection, schedule: Q01DX015 (ip), vehicle: carboxymethylcellulose (CMC) 105 % of control

COC(=O)CCCCCCCC(=O)OCC#CC#CCOC(=O)CCCCCCCC(=O)OC
inactive: [11] 95 % of control | [6] 107 % of control | [12] 90 % of control | [7] 94 % of control | dose: 400.0 mg/kg/injection, schedule: Q01DX009 (ip), vehicle: Klucel (hydroxypropylcellulose) (HPC) 95 % of control | [13] 91 % of control

CC(C)(C)NC(=O)C1CC2(C)CCC1C2(C)C (stereo not given)
inactive: [1] 93 % of control | [2] 93 % of control

Cc1cc([P+](c2ccccc2)(c2ccccc2)c2ccccc2)c(C)cc1[P+](c1ccccc1)(c1ccccc1)c1ccccc1
inactive: dose: 0.37 mg/kg/injection, schedule: Q04DX003 (ip), vehicle: Klucel (hydroxypropylcellulose) (HPC) 96 % of control | dose: 0.75 mg/kg/injection, schedule: Q04DX003 (ip), vehicle: Klucel (hydroxypropylcellulose) (HPC) 106 % of control | dose: 1.5 mg/kg/injection, schedule: Q04DX003 (ip), vehicle: Klucel (hydroxypropylcellulose) (HPC) 93 % of control | dose: 3.0 mg/kg/injection, schedule: Q04DX003 (ip), vehicle: Klucel (hydroxypropylcellulose) (HPC) 91 % of control

COc1ccc(N(N=Nc2ccccc2)C(C)=O)cc1
inactive: dose: 40.0 mg/kg/injection, schedule: Q01DX009 (ip), vehicle: Klucel (hydroxypropylcellulose) (HPC) 96 % of control | dose: 75.0 mg/kg/injection, schedule: Q01DX001 (ip), vehicle: Klucel (hydroxypropylcellulose) (HPC) 96 % of control | dose: 75.0 mg/kg/injection, schedule: Q01DX009 (ip), vehicle: Klucel (hydroxypropylcellulose) (HPC) 101 % of control | dose: 150.0 mg/kg/injection, schedule: Q01DX001 (ip), vehicle: Klucel (hydroxypropylcellulose) (HPC) 90 % of control | dose: 150.0 mg/kg/injection, schedule: Q01DX009 (ip), vehicle: Klucel (hydroxypropylcellulose) (HPC) 112 % of control | dose: 300.0 mg/kg/injection, schedule: Q01DX001 (ip), vehicle: Klucel (hydroxypropylcellulose) (HPC) 86 % of control

Cc1c2c([nH]c(=O)c1C)C=CC(Br)C2Br (stereo not given)
inactive: dose: 100.0 mg/kg/injection, schedule: Q01DX001 (ip), vehicle: other 93 % of control | dose: 200.0 mg/kg/injection, schedule: Q01DX001 (ip), vehicle: other 101 % of control | dose: 400.0 mg/kg/injection, schedule: Q01DX001 (ip), vehicle: other 98 % of control

CCOC(=O)C(CCCOC(=O)c1cc([N+](=O)[O-])cc([N+](=O)[O-])c1)C(=O)OCC
inactive: [3] 94 % of control | dose: 100.0 mg/kg/injection, schedule: Q01DX009 (ip), vehicle: saline 101 % of control | [4] 98 % of control | dose: 200.0 mg/kg/injection, schedule: Q01DX009 (ip), vehicle: saline 101 % of control | [5] 91 % of control | dose: 400.0 mg/kg/injection, schedule: Q01DX009 (ip), vehicle: saline 95 % of control

COc1ccc2c(c1)CCC1C2=CCC2C1C(=O)CCC2(OC)OC (stereo not given)
inactive: dose: 50.0 mg/kg/injection, schedule: Q01DX001 (ip), vehicle: Klucel (hydroxypropylcellulose) (HPC) 98 % of control | dose: 100.0 mg/kg/injection, schedule: Q01DX001 (ip), vehicle: Klucel (hydroxypropylcellulose) (HPC) 101 % of control | dose: 200.0 mg/kg/injection, schedule: Q01DX001 (ip), vehicle: Klucel (hydroxypropylcellulose) (HPC) 96 % of control

CNC(=O)Nc1ccc(Cl)cc1C
inactive: [11] 98 % of control | [6] 96 % of control | [12] 102 % of control | [7] 96 % of control | [13] 106 % of control

O=c1cc(C(F)(F)F)[nH]c2ccc(F)cc12
inactive: dose: 5.0 mg/kg/injection, schedule: Q04DX003 (ip), vehicle: saline with Tween-80 102 % of control | dose: 10.0 mg/kg/injection, schedule: Q04DX003 (ip), vehicle: saline with Tween-80 90 % of control | dose: 20.0 mg/kg/injection, schedule: Q04DX003 (ip), vehicle: saline with Tween-80 97 % of control

CCOC(=O)n1cnc2ncnc(SC)c21
inactive: dose: 25.0 mg/kg/injection, schedule: Q01DX015 (ip), vehicle: saline 102 % of control | dose: 50.0 mg/kg/injection, schedule: Q01DX001 (ip), vehicle: carboxymethylcellulose (CMC) 94 % of control and 106 % of control | dose: 50.0 mg/kg/injection, schedule: Q01DX015 (ip), vehicle: saline 96 % of control | [8] 109 % of control and 114 % of control | dose: 100.0 mg/kg/injection, schedule: Q01DX015 (ip), vehicle: saline 103 % of control | [9] 88 % of control | dose: 200.0 mg/kg/injection, schedule: Q01DX015 (ip), vehicle: saline 91 % of control | [10] 109 % of control
